The text below walks through data of publication PMC4503722, “Novel Phenotypic Outcomes Identified for a Public Collection of Approved Drugs from a Publicly Accessible Panel of Assays” (PLoS ONE, 2015).

Like-named read-outs stand apart in the source and are kept apart here. Some results are limits rather than exact numbers.

The test system of assay [1] is ECFC/ADSC co-culture cell nuclei number. Conditions: for IC50: read-out: VEGF_ADSC\ECFC Angio Hoechst NucArea summarized IC50.
Assay [2] deals with RKO. The assay can be described thus: cells. Conditions: for IC50: read-out: Basal_Viability ATP RKO summarized IC50. Format: cell-based.
Assay [3] concerns HCT116. The assay can be described thus: cells. Format: cell-based. Conditions: for IC50: read-out: Basal_Viability ATP HCT116 summarized IC50.
Assay [4] concerns SNU-C1. The assay can be described thus: cells. Format: cell-based. Conditions: for IC50: read-out: Basal_Viability ATP SNU-C1 summarized IC50.
Assay [5] has as its system DLD-1. The assay is described as follows: cells. Format: cell-based. Conditions: for IC50: read-out: Basal_Viability ATP DLD-1 summarized IC50.
Assay [6] deals with SW480. The assay is described as follows: cells. Format: cell-based. Conditions: for IC50: read-out: Basal_Viability ATP SW480 summarized IC50.
The subject of assay [7] is endothelial tube formation in co-cultures of ECFCs and ADSCs treated with VEGF. The assay can be described thus: cells. It is filed as cell-based, human. Conditions: for IC50: read-out: VEGF_ADSC\ECFC Angio CD31 TubeArea summarized IC50.
Assay [8] has as its system Colo320. The assay is described as follows: cells. It is filed as cell-based. Conditions: for IC50: read-out: Basal_Viability ATP Colo 320 summarized IC50.
For assay [9], the system named is HCT116 cells treated with a GSK3β inhibitor. The assay can be described thus: cells. Conditions: for IC50: read-out: GSK3b inh pretreated_Viability ATP HCT116 summarized IC50. It is filed as cell-based.
The subject of assay [10] is HT-29. The assay can be described thus: cells. It is filed as cell-based. Conditions: assay number 28; for IC50: read-out: Basal_Viability ATP HT-29 summarized IC50.
The test system of assay [11] is HeLa cells. The assay is described as follows: cells. It is filed as cell-based.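 For Hela CellCycMod PI 4N summarized IC50: value tracks stimulation of 4N DNA content.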

As to `Oc1ccc(Cl)cc1Sc1cc(Cl)ccc1O` [NCGC00013679-06], the IC50 – broadly, the concentration that inhibits the measured activity by half – in assay [1] was 8.69 µM; in assay [2] it was 0.116 µM; in assay [3], 0.183 µM; in [4], 1.85 µM; in [5], 0.301 µM; in [6], 0.579 µM. Also, the IC50 was determined as 3.53 µM in [7], 0.075 µM in [8] and 0.148 µM in assay [9].
Take `CC(C(=O)O)c1cccc(C(=O)c2ccccc2)c1` (stereo not shown) [NCGC00015578-12]: in [3] (assay number 25, basal), the “Basal_Viability ATP HCT116 IC50/EC50” value is given as 10.487 µM. For the same compound, the “Basal_Viability ATP SNU-C1 IC50/EC50” value in assay [4] (assay number 30, basal) came to 3.7959 µM. In assay [10] (basal), the “Basal_Viability ATP HT-29 IC50/EC50” value came out at 14.387 µM. Besides, in assay [5] (assay number 23, basal), the “Basal_Viability ATP DLD-1 IC50/EC50” value was 8.6441 µM. The “Basal_Viability ATP SW480 IC50/EC50” value in assay [6] (assay number 24, basal) is 10.2684 µM.
Turning to `CC(C)(C)NCC(O)c1cc(O)cc(O)c1.CC(C)(C)NCC(O)c1cc(O)cc(O)c1.O=S(=O)(O)O` (stereo not shown) [NCGC00016010-09], in assay [2] (assay number 29), the “Basal_Viability ATP RKO IC50/EC50” value is reported as more than 20 µM. Further, the “Basal_Viability ATP HCT116 IC50/EC50” value in assay [3] (assay number 25, basal) is given as more than 20 µM. For the same compound, in [10], the “Basal_Viability ATP HT-29 IC50/EC50” value was more than 20 µM. Moreover, in assay [5] (assay number 23), the “Basal_Viability ATP DLD-1 IC50/EC50” value is listed as more than 20 µM. Further, in assay [6] (assay number 24), the “Basal_Viability ATP SW480 IC50/EC50” value is more than 20 µM. Also, in assay [8] (assay number 27), the “Basal_Viability ATP Colo 320 IC50/EC50” value is reported as more than 20 µM.
On to `C=C(CC)C(=O)c1ccc(OCC(=O)O)c(Cl)c1Cl` [NCGC00016260-13], for which the IC50 in assay [2] is more than 6.67 µM; in assay [3], more than 20 µM; in assay [4], more than 20 µM; in [5], 11.9 µM; in [6], more than 6.67 µM; in [8], more than 20 µM. In assay [9], the IC50 is 12.2 µM.
With `COc1ccc(C(=O)c2ccccc2O)c(O)c1` [NCGC00016393-07], the IC50 is more than 20 µM in assay [2] (assay number 29, basal); more than 20 µM in [3] (assay number 25, basal); more than 20 µM in assay [10] (basal); more than 20 µM in assay [5] (assay number 23, basal); more than 20 µM in [6] (assay number 24, basal); more than 20 µM in assay [8] (assay number 27, basal).
Take `CN(Cc1cnc2nc(N)nc(N)c2n1)c1ccc(C(=O)N[C@@H](CCC(=O)O)C(=O)O)cc1` [NCGC00025060-15]: the IC50 in assay [1] is more than 10 µM; in [4] (assay number 30, basal) it was more than 20 µM; in assay [11] (assay number 14, 2N, read-out: Hela CellCycMod PI 2N summarized IC50) it was more than 10 µM; in assay [11] (assay number 15, S phase, read-out: Hela CellCycMod PI S Phase summarized IC50) it was more than 10 µM; in assay [11] (assay number 16, 4N, read-out: Hela CellCycMod PI 4N summarized IC50), more than 10 µM; in [11] (assay number 17, MI, read-out: Hela CellCycMod PI MI summarized IC50), more than 10 µM. The IC50 in assay [11] (assay number 18, cell number, read-out: Hela CellCycMod PI Cell Number summarized IC50) is more than 10 µM; in assay [7] it was more than 10 µM.
Turning to `Oc1ccc(Cl)cc1Cc1ccccc1` [NCGC00091532-06], the IC50 was more than 20 µM in assay [2] (assay number 29, basal); more than 20 µM in [3] (assay number 25, basal); more than 20 µM in assay [10] (basal); more than 20 µM in [6] (assay number 24, basal); 13 µM in [8] (assay number 27, basal); more than 6.67 µM in [9] (assay number 26, GSK3b inhibitor pretreated).
Turning to `O=C(OCc1ccccc1)c1cccnc1` [NCGC00166105-04], in assay [1], the “VEGF_ADSC\ECFC Angio Hoechst NucArea IC50/EC50” value is on record as more than 10 µM. Besides, in assay [2] (assay number 29, concentration response), the “Basal_Viability ATP RKO IC50/EC50” value is given as more than 20 µM. Also, the “Basal_Viability ATP HCT116 IC50/EC50” value in [3] (assay number 25, basal, concentration response) was more than 20 µM. Moreover, the “Basal_Viability ATP SNU-C1 IC50/EC50” value in [4] (assay number 30, concentration response) is more than 20 µM. In addition, the “Basal_Viability ATP DLD-1 IC50/EC50” value in assay [5] (assay number 23, concentration response) is more than 20 µM. The “VEGF_ADSC\ECFC Angio CD31 TubeArea IC50/EC50” value in assay [7] is reported as more than 10 µM. Moreover, the “Basal_Viability ATP Colo 320 IC50/EC50” value in assay [8] (assay number 27, concentration response) is more than 20 µM. Also, the “GSK3b inh pretreated_Viability ATP HCT116 IC50/EC50” value in assay [9] (assay number 26, GSK3b inhibitor pretreated, concentration response) was more than 20 µM.
